Structures can show the parent of a compound that is named as a salt. Where two headings read alike, the source gives them in different places.
How the values were obtained:
human TRPV1 = target: T1, human TRPV1 (Homo sapiens, UniProt Q8NER1); assay: Block of capsaicin-induced Ca2+ influx, human assay (hTRPV1/HEK293, FLIPR); format: cell-based; details: HEK293 cells transfected with human TRPV1; 150 nM capsaicin challenge; mean; > value = solubility limit in assay medium
T1 construct: expressed in transfected cells; host or cells: HEK293

rat TRPV1 = target: T2, rat TRPV1 (Rattus norvegicus, UniProt O35433); assay: Block of capsaicin-induced Ca2+ influx, rat assay (rTRPV1/HEK293, FLIPR); format: cell-based
T2 construct: expressed in transfected cells; host or cells: HEK293
Summary of the method: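 HEK293 cells expressing rat TRPV1, Fluo-3 loaded, preincubated 30 min with compound in 20 μM Ca2+ buffer (serial three-fold dilutions, usually from 10 μM, duplicate). Capsaicin-evoked fluorescence change over 100 s measured on FLIPR; IC50 by non-linear regression, averaged across runs.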

[1] = HEK293 cells transfected with rat TRPV1, capsaicin challenge, mean, > value = solubility limit in assay medium, read-out: Rat IC50

T1 sequence (Q8NER1 whole entry): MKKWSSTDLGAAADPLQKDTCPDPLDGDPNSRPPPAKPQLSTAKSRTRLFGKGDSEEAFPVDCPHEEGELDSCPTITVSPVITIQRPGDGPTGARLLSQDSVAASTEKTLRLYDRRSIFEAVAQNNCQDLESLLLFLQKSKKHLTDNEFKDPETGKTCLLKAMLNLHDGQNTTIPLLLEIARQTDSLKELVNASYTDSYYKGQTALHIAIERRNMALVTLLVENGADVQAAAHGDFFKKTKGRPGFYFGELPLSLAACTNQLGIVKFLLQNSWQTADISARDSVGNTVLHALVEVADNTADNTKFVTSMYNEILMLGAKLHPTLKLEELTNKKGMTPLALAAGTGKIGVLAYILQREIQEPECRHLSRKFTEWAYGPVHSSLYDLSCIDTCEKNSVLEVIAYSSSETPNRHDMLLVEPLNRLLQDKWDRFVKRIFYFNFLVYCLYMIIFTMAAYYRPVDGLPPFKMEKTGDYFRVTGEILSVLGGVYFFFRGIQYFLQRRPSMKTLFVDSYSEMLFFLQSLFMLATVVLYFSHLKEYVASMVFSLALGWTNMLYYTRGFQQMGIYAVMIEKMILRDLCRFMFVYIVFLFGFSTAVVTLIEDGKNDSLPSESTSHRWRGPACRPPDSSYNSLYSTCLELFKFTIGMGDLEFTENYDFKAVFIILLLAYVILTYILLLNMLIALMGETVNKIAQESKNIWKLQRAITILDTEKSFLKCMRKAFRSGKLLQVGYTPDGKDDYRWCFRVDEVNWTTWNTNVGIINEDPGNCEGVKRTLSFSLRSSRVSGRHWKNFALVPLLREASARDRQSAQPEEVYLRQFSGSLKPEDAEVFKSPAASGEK
T2 sequence (O35433 whole entry): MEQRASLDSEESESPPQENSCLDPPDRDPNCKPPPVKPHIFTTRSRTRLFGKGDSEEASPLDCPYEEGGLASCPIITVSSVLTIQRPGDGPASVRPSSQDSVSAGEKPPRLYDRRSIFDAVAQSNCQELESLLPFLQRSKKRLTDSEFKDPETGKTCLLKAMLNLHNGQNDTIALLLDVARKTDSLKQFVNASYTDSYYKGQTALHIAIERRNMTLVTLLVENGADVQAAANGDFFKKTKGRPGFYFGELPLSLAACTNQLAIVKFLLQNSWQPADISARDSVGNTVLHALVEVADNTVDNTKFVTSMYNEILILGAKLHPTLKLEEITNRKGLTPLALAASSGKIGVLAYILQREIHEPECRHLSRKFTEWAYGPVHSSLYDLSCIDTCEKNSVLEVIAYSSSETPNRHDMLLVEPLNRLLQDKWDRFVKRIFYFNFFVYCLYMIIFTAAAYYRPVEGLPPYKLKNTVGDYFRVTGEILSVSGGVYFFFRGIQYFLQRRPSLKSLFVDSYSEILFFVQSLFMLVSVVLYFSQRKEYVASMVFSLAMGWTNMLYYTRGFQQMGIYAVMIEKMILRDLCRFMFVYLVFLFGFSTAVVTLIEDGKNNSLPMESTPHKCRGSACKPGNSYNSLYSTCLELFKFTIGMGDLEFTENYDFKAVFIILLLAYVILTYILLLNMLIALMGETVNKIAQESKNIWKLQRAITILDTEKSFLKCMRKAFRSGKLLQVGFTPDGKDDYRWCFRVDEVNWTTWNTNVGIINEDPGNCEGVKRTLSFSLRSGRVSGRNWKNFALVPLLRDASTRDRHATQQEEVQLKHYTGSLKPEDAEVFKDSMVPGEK

IC50 (human TRPV1) [nM]	IC50 (rat TRPV1; [1]) [nM]	Structure (SMILES)	IC50 (rat TRPV1) [nM]
50	21	CC(Nc1nc(Nc2ccc(C(F)(F)F)cc2)c2nc(Cc3c(Cl)cccc3Cl)sc2n1)c1ccccn1 (stereo not drawn) [Example 87, 2-(2,6-Dichlorobenzyl)-N^5-(1-pyridin-2-ylethyl)-N^7-[4-(trifluoromethyl)phenyl][1,3]thiazolo[5,4-d]pyrimidine-5,7-diamine]	–
964	1040	CCN1CCCC1CNc1nc(Nc2ccc(C(F)(F)F)cc2)c2nc(Cc3c(Cl)cccc3Cl)sc2n1 (stereo not drawn) [Example 88, 2-(2,6-Dichlorobenzyl)-N^5-[(1-ethylpyrrolidin-2-yl)methyl]-N^7-[4-(trifluoromethyl)phenyl][1,3]thiazolo[5,4-d]pyrimidine-5,7-diamine]	–
6050	9710	FC(F)(F)c1ccc(Nc2nc(NCC3CCCCN3)nc3sc(Cc4c(Cl)cccc4Cl)nc23)cc1 (stereo not drawn) [Example 90, 2-(2,6-Dichlorobenzyl)-N^5-(piperidin-2-ylmethyl)-N^7-[4-(trifluoromethyl)phenyl][1,3]thiazolo[5,4-d]pyrimidine-5,7-diamine hydrochloride salt]	–
4050	3160	FC(F)(F)c1ccc(Nc2nc(NCC3CCCNC3)nc3sc(Cc4c(Cl)cccc4Cl)nc23)cc1 (stereo not drawn) [Example 91, 2-(2,6-Dichlorobenzyl)-N^5-(piperidin-3-ylmethyl)-N^7-[4-(trifluoromethyl)phenyl][1,3]thiazolo[5,4-d]pyrimidine-5,7-diamine hydrochloride salt]	–
4720	4340	FC(F)(F)c1ccc(Nc2nc(NCC3CCNCC3)nc3sc(Cc4c(Cl)cccc4Cl)nc23)cc1 [Example 92, 2-(2,6-Dichlorobenzyl)-N^5-(piperidin-4-ylmethyl)-N^7-[4-(trifluoromethyl)phenyl][1,3]thiazolo[5,4-d]pyrimidine-5,7-diamine hydrochloride salt]	–
276	231	FC(F)(F)c1cnc(Nc2ncnc3sc(Cc4c(Cl)cccc4Cl)nc23)cn1 [Example 93, [2-(2,6-Dichloro-benzyl)-thiazolo[5,4-d]pyrimidin-7-yl]-(5-trifluoromethyl-pyrazin-2-yl)-amine]	–
924	246	FC(F)(F)c1ccc(Nc2ncnc3sc(Cc4c(Cl)cccc4Cl)nc23)nc1 [Example 94, [2-(2,6-Dichloro-benzyl)-thiazolo[5,4-d]pyrimidin-7-yl]-(5-trifluoromethyl-pyridin-2-yl)-amine]	–
292	119	FC(F)(F)c1ccc(Nc2ncnc3sc(Cc4ccccc4C(F)(F)F)nc23)nc1 [Example 95, 2-[2-(Trifluoromethyl)benzyl]-N-[5-(trifluoromethyl)pyridin-2-yl][1,3]thiazolo[5,4-d]pyrimidin-7-amine]	–
466	224	FC(F)(F)c1ccc(Nc2ncnc3sc(Cc4ccccc4Cl)nc23)nc1 [Example 96, [2-(2-Chloro-benzyl)-thiazolo[5,4-d]pyrimidin-7-yl]-(5-trifluoromethyl-pyridin-2-yl)-amine]	–
1030	158	Cc1nc(Nc2ccc(C(F)(F)F)cn2)c2nc(Cc3c(Cl)cccc3Cl)sc2n1 [Example 97, [2-(2,6-Dichloro-benzyl)-5-methyl-thiazolo[5,4-d]ovrimidin-7-yl]-(5-trifluoromethyl-hyridin-2-yl)-amine]	–
126	62	N#Cc1ccccc1Cc1nc2c(Nc3ccc(C(F)(F)F)cc3)ncnc2s1 [Example 100, 2-[7-(4-Trifluoromethyl-phenylamino)-thiazolo[5,4-d]pyrimidin-2-ylmethyl]-benzonitrile]	–
207	34	COc1nc(Nc2ccc(C(F)(F)F)cc2)c2nc(Cc3c(Cl)cccc3Cl)sc2n1 [Example 101, [2-(2,6-Dichloro-benzyl)-5-methoxy-thiazolo[5,4-d]pyrimidin-7-yl]-(4-trifluoromethyl-phenyl)-amine]	–
188	74	CC(C)Oc1nc(Nc2ccc(C(F)(F)F)cc2)c2nc(Cc3c(Cl)cccc3Cl)sc2n1 [Example 102, [2-(2,6-Dichloro-benzyl)-5-isopropoxy-thiazolo[5,4-d]pyrimidin-7-yl]-(4-trifluoromethyl-phenyl)-amine]	–
1640	1230	FC(F)(F)c1ccc(Nc2ncnc3sc(Cc4ccccc4-c4ccccc4)nc23)cc1 [Example 105, (2-Biphenyl-2-ylmethylthiazolo[5,4-d]pyrimidin-7-yl)-(4-trifluoromethylphenyl)-amine]	–
1010	343	Oc1ccccc1-c1ccccc1Cc1nc2c(Nc3ccc(C(F)(F)F)cc3)ncnc2s1 [Example 106, 2′-[7-(4-Trifluoromethylphenylamino)-thiazolo[5,4-d]pyrimidin-2-ylmethyl]-biphenyl-2-ol]	–
6960	1530	NC(=O)c1ccc(-c2ccccc2Cc2nc3c(Nc4ccc(C(F)(F)F)cc4)ncnc3s2)cc1 [Example 107, 2′-[7-(4-Trifluoromethylphenylamino)-thiazolo[5,4-d]pyrimidin-2-ylmethyl]-biphenyl-4-carboxylic acid amide]	–
716	116	FC(F)(F)c1ccc(Nc2ncnc3[nH]c(Cc4c(Cl)cccc4Cl)nc23)cc1 [Example 109, [8-(2,6-Dichloro-benzyl)-9H-purin-6-yl]-(4-trifluoromethyl-phenyl)-amine trifluoroacetic acid salt]	–

Structure (SMILES)	IC50 (human TRPV1) [nM]	IC50 (rat TRPV1; [1]) [nM]	IC50 (rat TRPV1) [nM]
CC(C)[Si](Sc1ccccc1Cc1nc2c(Nc3ccc(C(F)(F)F)cc3)ncnc2s1)(C(C)C)C(C)C [Example 104, (4-Trifluoromethyl-phenyl)-[2-(2-triisopropylsilanylsulfanyl-benzyl)-thiazolo[5,4-d]pyrimidin-7-yl]-amine]	125	–	69
